Assay results as given in the NIST ThermoML archive (doi:10.1016/j.fluid.2018.12.016).

Settings: Liquid, Surface laser light scattering (SLLS)

C [methane] + CCCCCCCCCC
Settings | interfacial tension [mN/m]
310.93 K, 36221 kPa | 1.41e-05
310.94 K, 36221 kPa | 1.93e-05
310.95 K, 36187 kPa | 0.000902
310.96 K, 36198 kPa | 0.000591
310.97 K, 34448 kPa | 0.1569
310.97 K, 35150 kPa | 0.08112
310.97 K, 35795 kPa | 0.0247
310.97 K, 35857 kPa | 0.01978
310.97 K, 35989 kPa | 0.01122
310.97 K, 36092 kPa | 0.00519
310.97 K, 36215 kPa | 0.0001152
310.97 K, 36218 kPa | 4.75e-05
310.98 K, 35498 kPa | 0.04752
310.98 K, 35946 kPa | 0.014
310.98 K, 36206 kPa | 0.000326
310.99 K, 36151 kPa | 0.002584
311 K, 36213 kPa | 0.00015
311.12 K, 35885 kPa | 0.01746
